Assay results from patent EP4471048A1, “PEPTIDE INHIBITORS OF INTERLEUKIN-23 RECEPTOR” (Zealand Pharma A/S, priority 2023, dated 2024).
*1 amine or outer side, *2 acyl side, *3 side chain or, on linkers, in order; H or OH if unused. Where a SMILES comes first, the peptide text is derived from it. Bridges are numbered along the chain shown (N, C = ends). [ ]: non-standard residue; d: D form. hAad = O=C([C@H](CCCCC(=O)[*:3])N[*:1])[*:2]; X17 = O=C(C[C@@H](CCCN[*:3])N[*:2])[*:1]; 2Nal = N[C@@H](Cc1ccc2ccccc2c1)C(=O)O; AEF = NCCOc1ccc(C[C@H](N)C(=O)O)cc1; 3Pal = N[C@@H](Cc1cccnc1)C(=O)O; Aad = N[C@@H](CCCC(=O)O)C(=O)O; αMeL = CC(C)C[C@](C)(N)C(=O)O; dOrn = NCCC[C@@H](N)C(=O)O; dDab = NCC[C@@H](N)C(=O)O; Dab = NCC[C@H](N)C(=O)O

Target: T1, human IL-23R (Homo sapiens, UniProt Q5VWK5)
T1 sequence (Q5VWK5 22-629): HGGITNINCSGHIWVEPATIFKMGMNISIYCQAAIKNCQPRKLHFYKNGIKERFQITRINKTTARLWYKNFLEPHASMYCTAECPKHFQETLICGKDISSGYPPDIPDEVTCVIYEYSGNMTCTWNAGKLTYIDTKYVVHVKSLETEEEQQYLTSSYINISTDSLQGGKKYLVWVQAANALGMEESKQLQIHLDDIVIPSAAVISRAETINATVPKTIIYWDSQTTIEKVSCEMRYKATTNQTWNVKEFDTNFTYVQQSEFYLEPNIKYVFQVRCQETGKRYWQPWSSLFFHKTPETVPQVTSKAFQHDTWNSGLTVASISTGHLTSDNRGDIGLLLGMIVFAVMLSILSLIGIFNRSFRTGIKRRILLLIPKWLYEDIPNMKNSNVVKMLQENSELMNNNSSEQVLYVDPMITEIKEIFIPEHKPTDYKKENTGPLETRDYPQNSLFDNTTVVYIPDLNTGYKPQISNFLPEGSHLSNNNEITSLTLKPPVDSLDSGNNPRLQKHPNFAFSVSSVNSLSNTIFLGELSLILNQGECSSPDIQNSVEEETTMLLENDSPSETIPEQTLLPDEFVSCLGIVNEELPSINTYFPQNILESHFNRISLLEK
Assay: biochemical
Details: for Emax: read-out: % displacement (hIL-23R NIuc)
Text: The compound binding affinity for IL-23R was estimated by the ability of compounds to displace a fluorophore-labelled reference compound from the human IL-23R. The assay principle relies on Bioluminescence Resonance Energy Transfer (BRET) between a fluorophore-labelled reference compound binding to the IL-23R part of a fusion protein consisting of the IL-23R fused to a Nanoluc luciferase enzyme (Nanoluc). The Nanoluc is placed in the N-terminus in close proximity to the binding domain of the ligand. Upon close proximity between the fluorophore of the fluorophore-labelled compound and the Nanoluc of the fusion protein, bioluminescence energy generated from conversion of a Nanoluc substrate, is transferred to the fluorophore resulting in an increase in BRET. In presence of an unlabelled compound, the unlabelled compound displaces the fluorophore-labelled peptide from its binding site resulting in a decrease in BRET. The concentration for which half of the fluorophore-labelled peptide is displaced by the unlabelled compound depends on the affinity of the compound for the IL-23R, and is termed the IC50 concentration.
The plasmid also contained a gene to confer resistance for the antibiotic hygromycin. A cell line stably expressing the Nluc-IL23R fusion protein was generated by transfection of HEK293 cells with the expression plasmid and selected with hygromycin for 3 weeks in Growth medium consisting of DMEM w/ Glutamax-I containing, 10% V/V FBS, 1% V/V P/S, 1 mM Sodium Pyruvate, and 1X NEAA, and 0.3 mg/mL hygromycin. The remaining cells were propagated and considered a stable expressing Nluc-IL23R fusion protein pool clone.
Cells expressing the Nluc-IL23R fusion protein were expanded in Growth medium and membranes prepared by homogenization of a cell pellet from 18 T175 flasks (4 °C in subsequent steps). The cell pellet was lysed Tris 10 mM, 7.5, 1 mM EDTA and protease inhibitors (Complete, Roche) and homogenized using a 15 mL glass-dounce by 50 strokes. The homogenate was spun at spin @1500 rpm for 10 min, the supernatant transferred to SV-34 tubes and spun at 40000g for 20 min at 4 °C to pellet the crude membranes. The supernatant was then removed, the pellet resuspended in 5 mL buffer containing 50 mM HEPES pH 7.4, 5 mM EGTA, and 5 mM MgCl2, and homogenized. Aliquots of the resuspended and homogenized membranes containing the Nluc-IL23R fusion protein were stored at -80 °C until use.
The plate was sealed with light impermeable plate seals, and incubated on an orbital shaker 400 rpm for 2 hours at room temperature. To determine the BRET ratio, the plate seal was removed and 25 µL of the Nanoluc substrate (Promega N1572) diluted 1:500 was added to each well and incubated for 1-2 minutes on an orbital shaker at 400 rpm. […] The BRET ratio was calculated as the fluorescence from the TAMRA/nanoluc bioluminescence.
Compound potency (IC50) and maximal displacement (% displacement) were estimated by computer-aided curve fitting using a 4-parameter logistic (4PL) non-linear model. […]
In this application, the inventors provide the data as IC50 values.

Row | IC50 [nM] | Emax [%] | % displacement (hIL-23R NIuc) [%] | Structure (SMILES)
1 | 0.029 | 102 | – | CC(C)C[C@]1(C)NC(=O)[C@H](Cc2ccc3ccccc3c2)NC(=O)[C@H](Cc2ccc(OCCN)cc2)NC(=O)[C@@H]2CCC(=O)N[C@@H](CCCCCNC(=O)CC[C@@H](C(=O)N[C@@H](CCN)C(=O)N[C@@H](Cc3cccnc3)C(N)=O)NC1=O)C(=O)N[C@@H]([C@@H](C)O)C(=O)N[C@@H](C(C)C)C(=O)N[C@@H](Cc1c[nH]c3ccccc13)C(=O)N[C@@H](CCC(N)=O)C(=O)N2 [Compound 4, [hLys](1c)(6c)^†TVWQE(6c)[Y(2-aminoethoxy)][2-Nal][2-Me-Leu]E(1c)[Dab][3-(3-Pyridyl)-Ala]-[NH2]]
2 | 0.037 | 98 | – | CC(C)C[C@]1(C)NC(=O)[C@H](Cc2ccc3ccccc3c2)NC(=O)[C@H](Cc2ccc(OCCN)cc2)NC(=O)[C@@H]2CCC(=O)N[C@H](CCCCCNC(=O)CC[C@@H](C(=O)N[C@@H](CCN)C(=O)N[C@@H](Cc3cccnc3)C(N)=O)NC1=O)C(=O)N[C@@H]([C@@H](C)O)C(=O)N[C@@H](C(C)C)C(=O)N[C@@H](Cc1c[nH]c3ccccc13)C(=O)N[C@@H](CCC(N)=O)C(=O)N2 [Compound 5, [{d}hLys](1c)(6c)^†TVWQE(6c)[Y(2-aminoethoxy)][2-Nal][2-Me-Leu]E(1c)[Dab][3-(3-Pyridyl)-Ala]-[NH2]]
3 | 0.52 | – | – | CC(C)C[C@]1(C)NC(=O)[C@H](Cc2ccc3ccccc3c2)NC(=O)[C@H](Cc2ccc(OCCN)cc2)NC(=O)[C@@H]2CC(=O)N[C@H](CCCNC(=O)CCC[C@@H](C(=O)N[C@@H](CCN)C(=O)N[C@@H](Cc3cccnc3)C(N)=O)NC1=O)C(=O)N[C@@H]([C@@H](C)O)C(=O)N[C@@H](C(C)C)C(=O)N[C@@H](Cc1c[nH]c3ccccc13)C(=O)N[C@@H](CCC(N)=O)C(=O)N2 [Compound 8, [{d}Orn](1c)(6c)^†TVWQD(6c)[Y(2-aminoethoxy)][2-Nal][2-Me-Leu][hGlu](1c)[Dab][3-(3-Pyridyl)-Ala]-[NH2]] ([dOrn]TVWQD[AEF][2Nal][αMeL][Aad][Dab][3Pal]-NH2; lactam 1-10, N-6)
4 | 0.52 | – | 103 | CC(C)C[C@]1(C)NC(=O)[C@H](Cc2ccc3ccccc3c2)NC(=O)[C@H](Cc2ccc(OCCN)cc2)NC(=O)[C@@H]2CC(=O)N[C@H](CCNC(=O)CCCC[C@@H](C(=O)N[C@@H](CCN)C(=O)N[C@@H](Cc3cccnc3)C(N)=O)NC1=O)C(=O)N[C@@H]([C@@H](C)O)C(=O)N[C@@H](C(C)C)C(=O)N[C@@H](Cc1c[nH]c3ccccc13)C(=O)N[C@@H](CCC(N)=O)C(=O)N2 [Compound 9, [{d}Dab](1c)(6c)^†TVWQD(6c)[Y(2-aminoethoxy)][2-Nal][2-Me-Leu][2-Amino-6-carboxyhexanoyl](1 c)[Dab][3-(3-Pyridyl)-Ala]-[NH2]] ([dDab]TVWQD[AEF][2Nal][αMeL][hAad][Dab][3Pal]-NH2; lactam 1-10, N-6)
5 | 0.67 | 107 | – | CC(C)C[C@]1(C)NC(=O)[C@H](Cc2ccc3ccccc3c2)NC(=O)[C@H](Cc2ccc(OCCN)cc2)NC(=O)[C@@H]2CC(=O)N[C@H](CCCNC(=O)CC[C@@H](C(=O)N[C@@H](CCN)C(=O)N[C@@H](Cc3cccnc3)C(N)=O)NC1=O)C(=O)N[C@@H]([C@@H](C)O)C(=O)N[C@@H](C(C)C)C(=O)N[C@@H](Cc1c[nH]c3ccccc13)C(=O)N[C@@H](CCC(N)=O)C(=O)N2 [Compound 10, [{d}Orn](1c)(6c)^†TVWQD(6c)[Y(2-aminoethoxy)][2-Nal][2-Me-Leu]E(1c)[Dab][3-(3-Pyridyl)-Ala]-[NH2]] ([dOrn]TVWQD[AEF][2Nal][αMeL]E[Dab][3Pal]-NH2; lactam 1-10, N-6)
6 | 0.37 | 104 | – | CC(C)C[C@]1(C)NC(=O)[C@H](Cc2ccc3ccccc3c2)NC(=O)[C@H](Cc2ccc(OCCN)cc2)NC(=O)[C@@H]2CC(=O)N[C@H](CCNC(=O)CC[C@@H](C(=O)N[C@@H](CCN)C(=O)N[C@@H](Cc3cccnc3)C(N)=O)NC1=O)C(=O)N[C@@H]([C@@H](C)O)C(=O)N[C@@H](C(C)C)C(=O)N[C@@H](Cc1c[nH]c3ccccc13)C(=O)N[C@@H](CCC(N)=O)C(=O)N2 [Compound 11, [{d}Dab](1c)(6c)^†TVWQD(6c)[Y(2-aminoethoxy)][2-Nal][2-Me-Leu]E(1c)[Dab][3-(3-Pyridyl)-Ala]-[NH2]] ([dDab]TVWQD[AEF][2Nal][αMeL]E[Dab][3Pal]-NH2; lactam 1-10, N-6)

More lines, now with the values behind:

Row | Structure (SMILES) | IC50 [nM] | Emax [%] | % displacement (hIL-23R NIuc) [%]
7 | CC(C)C[C@]1(C)NC(=O)[C@H](Cc2ccc3ccccc3c2)NC(=O)[C@H](Cc2ccc(OCCN)cc2)NC(=O)[C@@H]2CC(=O)N[C@H](CCCNC(=O)CC[C@@H](C(=O)N[C@@H](CCN)C(=O)N[C@@H](Cc3cccnc3)C(N)=O)NC1=O)CC(=O)N[C@@H]([C@@H](C)O)C(=O)N[C@@H](Cc1c[nH]c3ccccc13)C(=O)N[C@@H](CCC(N)=O)C(=O)N2 [Compound 13, [{d}bLys](1c)(6c)^†TWQD(6c)[Y(2-aminoethoxy)][2-Nal][2-Me-Leu]E(1c)[Dab][3-(3-Pyridyl)-Ala]-[NH2]] (TWQD[AEF][2Nal][αMeL]E[Dab][3Pal]-NH2; linker N-4-8 via X17) | 1.4 | – | 101
8 | CC(C)C[C@]1(C)NC(=O)[C@H](Cc2ccc3ccccc3c2)NC(=O)[C@H](Cc2ccc(OCCN)cc2)NC(=O)[C@@H]2CCC(=O)N[C@H](CCCNC(=O)CC[C@@H](C(=O)N[C@@H](CCN)C(=O)N[C@@H](Cc3cccnc3)C(N)=O)NC1=O)CC(=O)N[C@@H]([C@@H](C)O)C(=O)N[C@@H](Cc1c[nH]c3ccccc13)C(=O)N[C@@H](CCC(N)=O)C(=O)N2 [Compound 14, [{d}bLys](1c)(6c)^†TWQE(6c)[Y(2-aminoethoxy)][2-Nal][2-Me-Leu]E(1c)[Dab][3-(3-Pyridyl)-Ala]-[NH2]] (TWQE[AEF][2Nal][αMeL]E[Dab][3Pal]-NH2; linker N-4-8 via X17) | 0.44 | 101 | –
9 | CC(C)C[C@]1(C)NC(=O)[C@H](Cc2ccc3ccccc3c2)NC(=O)[C@H](Cc2ccc(OCCN)cc2)NC(=O)[C@@H]2CC(=O)N[C@H](CCNC(=O)CCCC[C@@H](C(=O)N[C@@H](CCN)C(=O)N[C@@H](Cc3cccnc3)C(N)=O)NC1=O)C(=O)N[C@@H]([C@@H](C)O)C(=O)N[C@@H](Cc1c[nH]c3ccccc13)C(=O)N[C@@H](CCC(N)=O)C(=O)N2 [Compound 15, [{d}Dab](1c)(6c)^†TWQD(6c)[Y(2-aminoethoxy)][2-Nal][2-Me-Leu][2-Amino-6-carboxyhexanoyl](1 c)[Dab][3-(3-Pyridyl)-Ala]-[NH2]] ([dDab]TWQD[AEF][2Nal][αMeL][hAad][Dab][3Pal]-NH2; lactam 1-9, N-5) | – | 105 | –
10 | CC[C@H](C)[C@@H]1NC(=O)[C@@H]2CCCCNC(=O)CC[C@@H](C(=O)N[C@@H](CCN)C(=O)N[C@@H](Cc3cccnc3)C(N)=O)NC(=O)[C@](C)(C(C)C)NC(=O)[C@H](Cc3ccc4ccccc4c3)NC(=O)[C@H](Cc3ccc(C)cc3)NC(=O)[C@H](CCC(=O)N2)NC(=O)[C@H](CCC(N)=O)NC(=O)[C@H](Cc2c[nH]c3ccccc23)NC(=O)[C@H](C(C)C)NC1=O [Compound 16, K(1c)(6c)^†IVWQE(6c)[F(4-Me)][2-Nal][2-Me-Val]E(1c)[Dab][3-(3-Pyridyl)-Ala]-[NH2]] | 0.099 | 101 | –
